# Experimental data published in patent US11254686B1 (Corvus Pharmaceuticals, Inc., priority 2017, dated 2022).
# How the values were obtained:
# [1] = target: adenosine A2B receptor (Homo sapiens (Human), UniProt P29275); assay: Adenosine receptor activity assay (Table 1), A2B activity; format: biochemical; conditions: for IC50: read-out: Ave A2B cAMP IC50
# [2] = target: adenosine A2A receptor (Homo sapiens (Human), UniProt P29274); assay: Adenosine receptor activity assay (Table 1), A2A activity; format: biochemical; conditions: read-out: Ave A2A cAMP IC50
# [3] = A2A activity to the A2B activity, A2A/A2B
# [4] = A2A activity to A2B activity (A2A/A2B)
# Chain of adenosine A2B receptor (P29275 whole entry): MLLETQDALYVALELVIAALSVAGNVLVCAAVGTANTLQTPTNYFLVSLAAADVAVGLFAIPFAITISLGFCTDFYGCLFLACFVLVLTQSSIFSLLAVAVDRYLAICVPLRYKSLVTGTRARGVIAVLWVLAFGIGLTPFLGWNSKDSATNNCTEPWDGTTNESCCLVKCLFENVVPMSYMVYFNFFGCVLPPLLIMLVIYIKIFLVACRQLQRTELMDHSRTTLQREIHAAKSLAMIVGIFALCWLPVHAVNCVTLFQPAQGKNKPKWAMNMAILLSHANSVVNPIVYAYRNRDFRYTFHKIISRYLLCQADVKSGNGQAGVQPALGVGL
# Chain of adenosine A2A receptor (P29274 whole entry): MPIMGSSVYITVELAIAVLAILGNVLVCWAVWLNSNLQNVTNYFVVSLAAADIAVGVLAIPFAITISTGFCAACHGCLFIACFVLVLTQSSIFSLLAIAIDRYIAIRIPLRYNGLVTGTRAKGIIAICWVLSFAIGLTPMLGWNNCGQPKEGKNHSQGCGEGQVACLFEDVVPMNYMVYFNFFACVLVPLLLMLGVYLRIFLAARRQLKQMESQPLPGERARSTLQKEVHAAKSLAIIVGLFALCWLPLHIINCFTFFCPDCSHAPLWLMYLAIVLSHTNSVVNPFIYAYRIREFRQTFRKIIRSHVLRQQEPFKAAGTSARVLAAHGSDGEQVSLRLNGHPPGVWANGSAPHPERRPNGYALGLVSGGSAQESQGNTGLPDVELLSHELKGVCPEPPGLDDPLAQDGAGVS
"Ratio [1, 3]",IC50 [1] [nM],IC50 [2] [nM],"Ratio [1, 4]",Compound
0.80,50 to 100,50 to 100,,"COc1ccc(CNC(=O)c2nc(N[C@@H](C)c3ccccn3)nc3ccsc23)cc1 [Example Z474, (S)—N-(4-Methoxybenzyl)-2-((1-(pyridin-2-yl)ethyl)amino)thieno[3,2-d]pyrimidine-4-carboxamide]"
0.22,> 500,100 to 500,,"Azetidin-1-yl(2-(((6-methoxypyridin-3-yl)methyl)amino)thieno[3,2-d]pyrimidin-4-yl)methanone [Example Z433]"
2.65,10 to 50,50 to 100,,"CCO[C@@H]1CCN(C(=O)c2nc(N[C@@H](C)c3ccccn3)nc3ccsc23)C1 [Example Z438, ((R)-3-Ethoxypyrrolidin-1-yl)(2-(((S)-1-(pyridin-2-yl)ethyl)amino)thieno[3,2-d]pyrimidin-4-yl)methanone]"
,100 to 500,> 500,44.44,"CC(NC(=O)c1nc(NC(C)c2cccnc2)nc2ccsc12)c1cccnc1 (stereo not drawn) [Example Z44, N-(1-(Pyridin-3-yl)ethyl)-2-((1-(pyridin-3-yl)ethyl)amino)thieno[3,2-d]pyrimidine-4-carboxamide]"
,100 to 500,> 500,5.15,"COc1cncc(CNc2nc(C(=O)N3CCCC3)c3sccc3n2)c1 [Example Z114, (2-(((5-Methoxypyridin-3-yl)methyl)amino)thieno[3,2-d]pyrimidin-4-yl)(pyrrolidin-1-yl)methanone]"
,100 to 500,100 to 500,1.94,"C[C@H](Nc1nc(C(=O)NCc2ccc(C#N)nc2)c2sccc2n1)c1ccccn1 [Example Z64, (S)—N-((6-Cyanopyridin-3-yl)methyl)-2-((1-(pyridin-2-yl)ethyl)amino)thieno[3,2-d]pyrimidine-4-carboxamide]"
,100 to 500,100 to 500,0.87,"C[C@H](NC(=O)c1nc(N[C@@H](C)c2ccccc2)nc2ccsc12)c1ccccc1 [Example Z394, N—((S)-1-Phenylethyl)-2-(((S)-1-phenylethyl)amino)thieno[3,2-d]pyrimidine-4-carboxamide]"
,50 to 100,> 500,33.10,"Cc1cc2nc(N[C@@H](C)c3cncc(F)c3)nc(C(=O)NCCN3CCOCC3)c2s1 [Example Z372, (S)-2-((1-(5-Fluoropyridin-3-yl)ethyl)amino)-6-methyl-N-(2-morpholinoethyl)thieno[3,2-d]pyrimidine-4-carboxamide]"
,100 to 500,> 500,18.06,"O=C(c1nc(NCc2cncnc2)nc2ccsc12)N1CCCC1 [Example Z5, (2-((Pyrimidin-5-ylmethyl)amino)thieno[3,2-d]pyrimidin-4-yl)(pyrrolidin-1-yl)methanone]"
40.75,100 to 500,> 500,,"COC[C@@H]1CCN1C(=O)c1nc(N[C@@H](C)c2cncc(F)c2)nc2cc(C)sc12 [Example Z569, (2-(((S)-1-(5-Fluoropyridin-3-yl)ethyl)amino)-6-methylthieno[3,2-d]pyrimidin-4-yl)((S)-2-(methoxymethyl)azetidin-1-yl)methanone]"
6.54,100 to 500,> 500,,"Cc1cc2nc(N[C@@H](C)c3cncc(F)c3)nc(C(=O)NCCC3CCN(C(=O)OC(C)(C)C)CC3)c2s1 [Example Z487, tert-Butyl (S)-4-(2-(2-((1-(5-fluoropyridin-3-yl)ethyl)amino)-6-methylthieno[3,2-d]pyrimidine-4-carboxamido)ethyl)piperidine-1-carboxylate]"
,> 500,> 500,0.49,"C[C@H](Nc1nc(C(=O)NCc2cncnc2)c2sccc2n1)c1cccnc1 [Example Z6, (S)-2-((1-(Pyridin-3-yl)ethyl)amino)-N-(pyrimidin-5-ylmethyl)thieno[3,2-d]pyrimidine-4-carboxamide]"
2.19,100 to 500,100 to 500,,"CCO[C@H]1CCN(C(=O)c2nc(N[C@@H](C)c3ccccn3)nc3ccsc23)C1 [Example Z442, ((S)-3-Ethoxypyrrolidin-1-yl)(2-(((S)-1-(pyridin-2-yl)ethyl)amino)thieno[3,2-d]pyrimidin-4-yl)methanone]"
,> 500,> 500,1.00,"CCN(CC)C(=O)c1nc(N[C@@H](C)c2cccnc2)nc2ccsc12 [Example Z41, (S)—N,N-Diethyl-2-((1-(pyridin-3-yl)ethyl)amino)thieno[3,2-d]pyrimidine-4-carboxamide]"
,10 to 50,100 to 500,32.64,"C[C@H](Nc1nc(C(=O)N[C@@H]2CC[C@@H](O)C2)c2sccc2n1)c1cncc(F)c1 [Example Z395, 2-(((S)-1-(5-Fluoropyridin-3-yl)ethyl)amino)-N-((1R,3R)-3-hydroxycyclopentyl)thieno[3,2-d]pyrimidine-4-carboxamide]"
,10 to 50,50 to 100,5.70,"COCC(Nc1nc(C(=O)N2CC(OC)C2)c2sccc2n1)c1cccnc1 (stereo not drawn) [Example Z217, (2-((2-Methoxy-1-(pyridin-3-yl)ethyl)amino)thieno[3,2-d]pyrimidin-4-yl)(3-methoxyazetidin-1-yl)methanone]"
0.22,100 to 500,50 to 100,,"COc1ccc([C@H](C)Nc2nc(C(=O)N3CC(NC(C)=O)C3)c3sc(C)cc3n2)cc1 [Example Z556, (S)—N-(1-(2-((1-(4-Methoxyphenyl)ethyl)amino)-6-methylthieno[3,2-d]pyrimidine-4-carbonyl)azetidin-3-yl)acetamide]"
43.40,50 to 100,> 500,,"C[C@H](Nc1nc(C(=O)N2CC(C(=O)NCCO)C2)c2sccc2n1)c1cncc(F)c1 [Example Z547, (S)-1-(2-((1-(5-Fluoropyridin-3-yl)ethyl)amino)thieno[3,2-d]pyrimidine-4-carbonyl)-N-(2-hydroxyethyl)azetidine-3-carboxamide]"
16.87,10 to 50,> 500,,"C[C@H](Nc1nc(C(=O)N2CC(C(N)=O)C2)c2sccc2n1)c1cncc(F)c1 [Example Z563, (S)-1-(2-((1-(5-Fluoropyridin-3-yl)ethyl)amino)thieno[3,2-d]pyrimidine-4-carbonyl)azetidine-3-carboxamide]"
,10 to 50,> 500,28.39,"CC(=O)N[C@H]1CCN(C(=O)c2nc(N[C@@H](C)c3ccccn3)nc3ccsc23)C1 [Example Z324, N—((S)-1-(2-(((S)-1-(Pyridin-2-yl)ethyl)amino)thieno[3,2-d]pyrimidine-4-carbonyl)pyrrolidin-3-yl)acetamide]"
,10 to 50,> 500,46.63,"C[C@H](Nc1nc(C(=O)N2CC[C@@H](O)C2)c2sc(C(F)(F)F)cc2n1)c1ccccn1 [Example Z349, ((R)-3-Hydroxypyrrolidin-1-yl)(2-(((S)-1-(pyridin-2-yl)ethyl)amino)-6-(trifluoromethyl)thieno[3,2-d]pyrimidin-4-yl)methanone]"
,10 to 50,100 to 500,6.35,"C[C@H](Nc1nc(C(=O)N2CCC(C(=O)OC(C)(C)C)C2)c2sccc2n1)c1cncc(F)c1 (stereo partly drawn) [Example Z354, tert-Butyl 1-(2-(((S)-1-(5-fluoropyridin-3-yl)ethyl)amino)thieno[3,2-d]pyrimidine-4-carbonyl)pyrrolidine-3-carboxylate]"
,100 to 500,100 to 500,1.41,"COc1ccc(CNC(=O)c2nc(NCc3cncc(C)c3)nc3ccsc23)cn1 [Example Z57, N-((6-Methoxypyridin-3-yl)methyl)-2-(((5-methylpyridin-3-yl)methyl)amino)thieno[3,2-d]pyrimidine-4-carboxamide]"
,10 to 50,10 to 50,3.85,"CC1CCN1C(=O)c1nc(N[C@@H](C)c2ccccn2)nc2ccsc12 (stereo partly drawn) [Example Z133, (2-Methylazetidin-1-yl)(2-(((S)-1-(pyridin-2-yl)ethyl)amino)thieno[3,2-d]pyrimidin-4-yl)methanone]"
,> 500,> 500,3.17,"COCCNC(=O)c1nc(NCc2cnccn2)nc2ccsc12 [Example Z157, N-(2-Methoxyethyl)-2-((pyrazin-2-ylmethyl)amino)thieno[3,2-d]pyrimidine-4-carboxamide]"
,10 to 50,100 to 500,4.59,"C[C@H](Nc1nc(C(=O)NCC2CCOCC2)c2sccc2n1)c1ccccn1 [Example Z227, (S)-2-((1-(Pyridin-2-yl)ethyl)amino)-N-((tetrahydro-2H-pyran-4-yl)methyl)thieno[3,2-d]pyrimidine-4-carboxamide]"
0.43,100 to 500,100 to 500,,"CCOc1ccc(CNc2nc(C(=O)N3CCC3)c3sccc3n2)cn1 [Example Z453, Azetidin-1-yl(2-(((6-ethoxypyridin-3-yl)methyl)amino)thieno[3,2-d]pyrimidin-4-yl)methanone]"
,100 to 500,100 to 500,3.77,"CC(CNC(=O)c1nc(N[C@@H](C)c2ccccn2)nc2ccsc12)Oc1cccnc1 (stereo partly drawn) [Example Z77, 2-(((S)-1-(Pyridin-2-yl)ethyl)amino)-N-(2-(pyridin-3-yloxy)propyl)thieno[3,2-d]pyrimidine-4-carboxamide]"
0.05,> 500,10 to 50,,"COc1ccc([C@H](C)Nc2nc(C(=O)NCc3ccccn3)c3sccc3n2)cc1 [Example Z466, (S)-2-((1-(4-Methoxyphenyl)ethyl)amino)-N-(pyridin-2-ylmethyl)thieno[3,2-d]pyrimidine-4-carboxamide]"
6.69,50 to 100,> 500,,"C[C@H](Nc1nc(C(=O)N2CC[C@@H](O)C2)c2sccc2n1)c1ccnc(F)c1 [Example Z408, (2-(((S)-1-(2-Fluoropyridin-4-yl)ethyl)amino)thieno[3,2-d]pyrimidin-4-yl)((R)-3-hydroxypyrrolidin-1-yl)methanone]"
